The values that follow come from US20180201614A1, “BICYCLIC COMPOUNDS” (KALYRA PHARMACEUTICALS, INC., priority 2015, published 2018).

A word on the IC50: it is the concentration at which inhibition is half-maximal. Lower therefore signals inhibition by little substance.

Each structure is given as a SMILES string.

Test [1] has as its system A431 (WT) cells. The test can be described thus: EGFR cell proliferation assay (CellTiter-Glo), A431. Format: cell-based. The note with it: Homo sapiens, A-431, 3-5 days. On the procedure:
(§1) Cell Lines: A431 (WT), H1975 (L858R/T790M), PC9 (E746-A750 deletion): A431 cells were grown in DMEM (Invitrogen, Carlsbad, Calif.) supplemented with 10% FBS (HyClone, South Logan, Utah) and 1% Penicillin-Streptomycin (P/S, Lonza, Walkersville, Md.). H1975 cells were grown in RPMI 1640 (Invitrogen) supplemented with 10% FBS and 1% P/S. […] PC-9 cells were obtained from Japan. All cells were maintained and propagated as monolayer cultures at 37° C. in a humidified 5% CO2 incubator. All cells were cultured according to recommendations.
(§2) Cell proliferation was measured using the CellTiter-Glo® Luminescent Cell Viability Assay. The assay involved the addition of a single reagent (CellTiter-Glo® Reagent) directly to cells cultured in serum-supplemented medium. The assay used a one-step addition to induce cell lysis and generate a luminescent signal proportional to the amount of ATP present, which is directly proportional to the number of metabolically active cells present in culture.
(§3) Each compound evaluated was prepared as a DMSO stock solution (10 mM). Compounds were tested in duplicate on each plate, with an 11-point serial dilution curve (1:3 dilution). Compound treatment (50 μL) was added from the compound dilution plate to the cell plate. The highest compound concentration was 1 or 10 μM (final), with a 0.3% final DMSO (#D-5879, Sigma, St Louis, Mo.) concentration. Plates were then incubated at 37° C., 5% CO2. After 3-5 days of compound treatment, CellTiter-Glo® Reagent (#G7573, Promega, Madison, Wis.) was prepared in one of two ways. If thawing a frozen aliquot of CellTiter-Glo® Reagent, the aliquot was thawed and equilibrated to RT prior to use while keeping it protected from light. Alternatively, new bottles of CellTiter-Glo® Buffer and CellTiter-Glo® Substrate were thawed and equilibrated to RT prior to use. CellTiter-Glo® Buffer (100 mL) was transferred into the amber bottle containing CellTiter-Glo® Substrate to reconstitute the lyophilized enzyme/substrate mixture, forming the CellTiter-Glo® Reagent. The reconstituted reagent was mixed by gently inverting the contents to obtain a homogeneous solution, and went into solution easily in less than 1 min. Any unused reconstituted CellTiter-Glo® Reagent was immediately aliquoted and frozen at −20° C., and protected from light. Cell plates were equilibrated at RT for approximately 30 mins. An equi-volume amount of CellTiter-Glo® Reagent (100 μL) was added to each well. Plates were mixed for 2 mins on an orbital shaker to induce cell lysis, and then were allowed to incubate at RT for 10 mins to stabilize the luminescent signal. Luminescence was recorded using the PerkinElmer EnVision Excite Multilabel Reader used for endpoint reading for luminescence detection (Waltham, Mass.). Data was analyzed using a four-parameter fit in Microsoft Excel.
(In general: Cellular ATP, detected with luciferase, serves as a proxy for viable cell number.)

For test [2], the target named is IGF1R (Homo sapiens, UniProt P08069). The test is described as follows: Biochemical enzyme assay, IGF1R.
Sequence of IGF1R (P08069 31-1367, species assumed): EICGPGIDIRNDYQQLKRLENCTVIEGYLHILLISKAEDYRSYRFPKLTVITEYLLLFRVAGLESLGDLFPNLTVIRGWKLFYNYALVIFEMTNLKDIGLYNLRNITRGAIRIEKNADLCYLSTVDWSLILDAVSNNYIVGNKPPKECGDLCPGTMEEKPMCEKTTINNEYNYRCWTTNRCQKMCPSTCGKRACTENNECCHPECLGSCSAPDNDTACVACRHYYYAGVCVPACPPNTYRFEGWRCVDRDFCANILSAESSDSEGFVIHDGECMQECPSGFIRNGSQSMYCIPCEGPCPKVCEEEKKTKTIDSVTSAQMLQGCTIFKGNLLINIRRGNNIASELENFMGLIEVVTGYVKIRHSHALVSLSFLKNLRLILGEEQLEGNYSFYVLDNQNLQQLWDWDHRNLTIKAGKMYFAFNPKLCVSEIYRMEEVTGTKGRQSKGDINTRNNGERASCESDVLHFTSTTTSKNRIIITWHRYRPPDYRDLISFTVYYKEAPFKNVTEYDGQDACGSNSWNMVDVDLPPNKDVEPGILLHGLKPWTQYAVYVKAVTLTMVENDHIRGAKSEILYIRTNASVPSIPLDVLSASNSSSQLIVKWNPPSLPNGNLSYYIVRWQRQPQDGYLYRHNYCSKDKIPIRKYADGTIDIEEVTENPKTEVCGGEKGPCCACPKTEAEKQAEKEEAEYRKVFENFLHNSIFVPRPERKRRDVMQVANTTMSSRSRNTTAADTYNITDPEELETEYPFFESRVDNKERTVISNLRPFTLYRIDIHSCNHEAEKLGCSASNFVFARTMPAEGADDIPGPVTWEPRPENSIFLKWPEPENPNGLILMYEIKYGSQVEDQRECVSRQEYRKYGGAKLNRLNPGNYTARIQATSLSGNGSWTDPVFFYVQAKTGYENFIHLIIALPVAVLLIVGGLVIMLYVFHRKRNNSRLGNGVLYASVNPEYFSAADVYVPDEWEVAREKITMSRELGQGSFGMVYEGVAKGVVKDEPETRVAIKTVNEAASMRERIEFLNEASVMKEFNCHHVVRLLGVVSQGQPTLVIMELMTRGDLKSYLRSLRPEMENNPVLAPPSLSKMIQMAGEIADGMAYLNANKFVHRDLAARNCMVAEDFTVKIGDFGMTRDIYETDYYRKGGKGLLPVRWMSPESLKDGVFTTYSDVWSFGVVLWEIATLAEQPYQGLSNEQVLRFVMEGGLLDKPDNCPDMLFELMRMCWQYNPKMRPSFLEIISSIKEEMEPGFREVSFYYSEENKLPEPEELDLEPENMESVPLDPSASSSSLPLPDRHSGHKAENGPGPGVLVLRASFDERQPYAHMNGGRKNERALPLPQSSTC
Test [3] addresses EGFR Wt (Homo sapiens, UniProt P00533). The test can be described thus: EGFR biochemical enzyme assay, Wt.
Test [4] addresses T1, human EGFR (T790M/L858R) (Homo sapiens, UniProt P00533, L858R/T790M).
T1 construct: with amino acids 696-end containing the T790M and L858R mutations; GST (N); purchased Millipore
The test can be described thus: EGFR biochemical enzyme assay (HTRF KinEASE TK). The note with it: 30 μM ATP. On the procedure: The inhibitory activity of a compound against EGFR (T790M/L858R) were determined with CisBio HTRF (homogenous time-resolved fluorescence) KinEASE TK (#62TKOPEC). The enzyme reaction contained recombinant N-terminal GST-tagged human EGFR (T790M/L858R), which phosphorylates the HTRF tyrosine kinase biotinylated substrate.
The sequence of the substrate is proprietary to CisBio. Test compounds were serially diluted in 100% (v/v) DMSO before being acoustically dispensed from an Echo 555 (Labcyte) into black Corning 1536-well assay plates. Kinase activity assays were performed in a total reaction volume of 3 μL per well. A 1.5 μL enzyme reaction consisted of 1.6 nM EGFR ([…], L858R), 1 mM DTT, and 10 mM MgCl2. A 1.5 μL substrate mix consisted of 1 μM TK substrate, 30 μM ATP, 1 mM DTT, and 10 mM MgCl2. Following a 50 mins incubation, 3 μL of stop mix was added, which consisted of 250 nM Strep-XL665 and TK Ab-Cryptate diluted in kit detection buffer. The plates were incubated for 1 h before being read on Pherastar using standard HTRF settings. N-terminal GST-tagged recombinant human EGF receptor, with amino acids 696-end containing the T790M and L858R mutations, was obtained from Millipore.
(Time-resolved FRET reads energy transfer from a long-lived donor to a nearby acceptor.)

Test [5] has as its target EGFR L858R (Homo sapiens, UniProt P00533, L858R). The test can be described thus: EGFR biochemical enzyme assay, L858R.
Test [6] relates to PC9 (E746-A750 deletion) cells. The test is described as follows: EGFR cell proliferation assay (CellTiter-Glo), PC9. The format is cell-based. Conditions: 3-5 days. As to the method: as §1, §2, §3
In test [7] the test system is H1975 (L858R/T790M) cells. The test is described as follows: EGFR cell proliferation assay (CellTiter-Glo), H1975. The format is cell-based. The note with it: Homo sapiens, NCI-H1975, 3-5 days. As to the method:
as §1, §2, §3

Test [8] addresses T2, EGFR Del-19 (Homo sapiens, UniProt P00533).
T2 construct: as on the sister T790M/L858R enzyme
The test can be described thus: EGFR biochemical enzyme assay, Del-19.

The target of test [9] is INSR (Homo sapiens, UniProt P06213). The test can be described thus: Biochemical enzyme assay, INSR.
Sequence of INSR (P06213 28-1382, species assumed): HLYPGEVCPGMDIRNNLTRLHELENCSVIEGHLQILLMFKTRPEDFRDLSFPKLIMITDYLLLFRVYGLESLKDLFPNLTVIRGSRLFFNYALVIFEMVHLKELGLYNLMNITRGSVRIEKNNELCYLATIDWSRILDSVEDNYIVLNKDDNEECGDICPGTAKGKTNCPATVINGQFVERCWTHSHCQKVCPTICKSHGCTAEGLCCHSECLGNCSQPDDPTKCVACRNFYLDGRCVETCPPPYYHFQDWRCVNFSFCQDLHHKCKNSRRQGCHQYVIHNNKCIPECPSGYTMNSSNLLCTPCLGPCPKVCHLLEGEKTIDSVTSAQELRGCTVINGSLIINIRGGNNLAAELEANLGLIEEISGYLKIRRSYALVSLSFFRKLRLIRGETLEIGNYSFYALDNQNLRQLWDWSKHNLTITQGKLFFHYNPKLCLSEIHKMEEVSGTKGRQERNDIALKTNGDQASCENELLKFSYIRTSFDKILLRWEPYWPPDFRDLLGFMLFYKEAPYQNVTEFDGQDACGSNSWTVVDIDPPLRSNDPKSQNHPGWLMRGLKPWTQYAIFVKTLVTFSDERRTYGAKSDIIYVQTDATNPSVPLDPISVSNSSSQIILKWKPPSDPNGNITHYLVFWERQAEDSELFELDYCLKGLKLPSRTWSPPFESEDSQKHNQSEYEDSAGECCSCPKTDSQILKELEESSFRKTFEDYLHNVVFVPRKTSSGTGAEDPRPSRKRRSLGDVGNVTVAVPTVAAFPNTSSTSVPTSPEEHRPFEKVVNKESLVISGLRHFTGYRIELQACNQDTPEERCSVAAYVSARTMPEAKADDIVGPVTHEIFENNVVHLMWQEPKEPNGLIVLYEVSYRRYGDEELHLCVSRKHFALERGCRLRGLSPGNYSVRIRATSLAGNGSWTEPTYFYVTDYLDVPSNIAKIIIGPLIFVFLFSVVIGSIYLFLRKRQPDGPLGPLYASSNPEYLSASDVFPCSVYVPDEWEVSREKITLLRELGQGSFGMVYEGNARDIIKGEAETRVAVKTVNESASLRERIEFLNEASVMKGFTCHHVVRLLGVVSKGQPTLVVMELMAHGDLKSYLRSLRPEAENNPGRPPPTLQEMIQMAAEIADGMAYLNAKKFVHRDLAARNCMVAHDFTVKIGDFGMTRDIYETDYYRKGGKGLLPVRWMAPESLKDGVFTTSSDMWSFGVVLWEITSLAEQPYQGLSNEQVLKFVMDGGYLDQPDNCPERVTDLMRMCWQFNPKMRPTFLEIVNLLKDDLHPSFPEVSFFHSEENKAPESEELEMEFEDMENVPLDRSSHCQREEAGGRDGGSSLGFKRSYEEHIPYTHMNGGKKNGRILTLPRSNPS

Sequence of EGFR Wt (P00533 25-1210): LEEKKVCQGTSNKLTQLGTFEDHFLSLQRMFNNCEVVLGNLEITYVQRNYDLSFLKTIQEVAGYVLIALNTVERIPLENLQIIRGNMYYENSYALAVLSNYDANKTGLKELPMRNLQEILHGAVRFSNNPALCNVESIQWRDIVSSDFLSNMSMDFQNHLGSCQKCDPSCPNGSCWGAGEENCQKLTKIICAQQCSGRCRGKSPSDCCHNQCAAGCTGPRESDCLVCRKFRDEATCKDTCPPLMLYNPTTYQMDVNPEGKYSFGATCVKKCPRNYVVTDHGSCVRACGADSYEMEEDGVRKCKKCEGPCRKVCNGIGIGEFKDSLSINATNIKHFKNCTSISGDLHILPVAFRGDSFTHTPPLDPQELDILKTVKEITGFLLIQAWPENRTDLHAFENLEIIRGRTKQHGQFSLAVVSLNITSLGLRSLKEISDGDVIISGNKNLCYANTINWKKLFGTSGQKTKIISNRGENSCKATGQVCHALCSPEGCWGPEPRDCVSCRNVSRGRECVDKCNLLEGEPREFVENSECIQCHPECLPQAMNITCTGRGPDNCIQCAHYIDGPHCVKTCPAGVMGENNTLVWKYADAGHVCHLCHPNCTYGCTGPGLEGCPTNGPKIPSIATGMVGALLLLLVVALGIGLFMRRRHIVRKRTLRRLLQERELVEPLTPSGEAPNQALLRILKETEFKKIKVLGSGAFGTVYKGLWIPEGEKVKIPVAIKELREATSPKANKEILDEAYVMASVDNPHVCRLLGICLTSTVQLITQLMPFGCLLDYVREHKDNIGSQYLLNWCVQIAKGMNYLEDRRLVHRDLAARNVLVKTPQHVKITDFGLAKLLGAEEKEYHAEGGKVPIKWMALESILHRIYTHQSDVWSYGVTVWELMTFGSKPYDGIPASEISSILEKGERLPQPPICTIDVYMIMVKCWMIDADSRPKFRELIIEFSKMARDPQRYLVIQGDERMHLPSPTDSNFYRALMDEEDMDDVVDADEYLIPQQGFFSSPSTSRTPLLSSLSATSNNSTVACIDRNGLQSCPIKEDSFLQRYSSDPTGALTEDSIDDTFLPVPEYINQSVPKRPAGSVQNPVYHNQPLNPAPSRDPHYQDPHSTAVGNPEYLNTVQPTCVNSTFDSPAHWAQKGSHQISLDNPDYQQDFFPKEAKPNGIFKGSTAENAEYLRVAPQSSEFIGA
T1 sequence (P00533 696-1210 T790M/L858R): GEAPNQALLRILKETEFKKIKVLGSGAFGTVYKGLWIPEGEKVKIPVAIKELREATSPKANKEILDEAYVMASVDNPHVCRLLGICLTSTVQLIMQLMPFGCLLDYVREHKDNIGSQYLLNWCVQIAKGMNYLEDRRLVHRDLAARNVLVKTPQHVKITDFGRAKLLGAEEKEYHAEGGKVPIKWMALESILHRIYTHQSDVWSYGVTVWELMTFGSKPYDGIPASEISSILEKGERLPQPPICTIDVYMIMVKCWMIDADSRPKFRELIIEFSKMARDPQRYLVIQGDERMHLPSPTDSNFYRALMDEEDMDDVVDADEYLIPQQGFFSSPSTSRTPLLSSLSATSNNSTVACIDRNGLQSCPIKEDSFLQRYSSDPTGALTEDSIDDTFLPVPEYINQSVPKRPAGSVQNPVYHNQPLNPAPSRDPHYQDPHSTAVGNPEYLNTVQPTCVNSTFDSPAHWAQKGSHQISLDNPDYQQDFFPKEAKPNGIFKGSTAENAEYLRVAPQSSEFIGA

Regarding `C=CC(=O)N[C@@H]1CN(c2nc(Nc3cn(C)nc3OC)c3ncn(C45CC(C4)C5)c3n2)C[C@H]1F` (racemic) [Example 6, N-((3R,4R)-1-(9-(bicyclo[1.1.1]pentan-1-yl)-6-((3-methoxy-1-methyl-1H-pyrazol-4-yl)amino)-9H-purin-2-yl)-4-fluoropyrrolidin-3-yl)acrylamide], the IC50 in test [1] was no less than 0.3 µM; in test [2] it was no less than 0.1 µM; in test [3] it was no more than 0.01 µM; in test [4], no more than 0.01 µM; in test [5] it was no more than 0.01 µM; in [6] it was less than 0.05 µM. Also, the figures for the IC50 in test [7], in test [8] and in test [9] were 0.05 to 0.3 µM, no more than 0.01 µM and no less than 0.1 µM, respectively.

Consider `C=CC(=O)N[C@@H]1CN(c2nc(Nc3cn(C)nc3OC)c3ncc(C)n3n2)C[C@H]1F` [Example 1, N-((3R,4R)-4-fluoro-1-(4-((3-methoxy-1-methyl-1H-pyrazol-4-yl)amino)-7-methylimidazo[2,1-f][1,2,4]triazin-2-yl)pyrrolidin-3-yl)acrylamide], for which the IC50 in [1] was no less than 0.3 µM; in test [2] it was no less than 0.1 µM; in test [3], no more than 0.01 µM; in test [4] it was no more than 0.01 µM; in test [5], no more than 0.01 µM; in test [6] it was less than 0.05 µM. For the same molecule, the half-maximal inhibitory concentration (IC50) was less than 0.05 µM in [7], no more than 0.01 µM in test [8] and no less than 0.1 µM in test [9].

`C=CC(=O)N[C@@H]1CN(c2nc(Nc3cn([C@H]4CCN(C)C4)nc3OC)c3ncc(C)n3n2)C[C@H]1F` [Example 2, N-((3R,4R)-4-fluoro-1-(4-((3-methoxy-1-((S)-1-methylpyrrolidin-3-yl)-1H-pyrazol-4-yl)amino)-7-methylimidazo[2,1-f][1,2,4]triazin-2-yl)pyrrolidin-3-yl)acrylamide]: the concentration for half-maximal inhibition (IC50) in test [1] is 0.05 to 0.3 µM; in test [2] it was no less than 0.1 µM; in test [3] it was no more than 0.01 µM; in test [4], no more than 0.01 µM; in test [6], less than 0.05 µM; in test [7] it was less than 0.05 µM. Also, the concentration for half-maximal inhibition (IC50) was no more than 0.01 µM in test [8] and no less than 0.1 µM in [9].

`C=CC(=O)N[C@@H]1CN(c2nc(Nc3cn(C4CCN(C)CC4)nc3OC)c3ncc(C)n3n2)C[C@H]1F` [Example 4, N-((3R,4R)-4-fluoro-1-(4-((3-methoxy-1-(1-methylpiperidin-4-yl)-1H-pyrazol-4-yl)amino)-7-methylimidazo[2,1-f][1,2,4]triazin-2-yl)pyrrolidin-3-yl)acrylamide]: the IC50 in test [1] was 0.05 to 0.3 µM; in test [2], no less than 0.1 µM; in [3], no more than 0.01 µM; in [4], no more than 0.01 µM; in [6], less than 0.05 µM; in test [7] it was less than 0.05 µM. For the same molecule, the results for the IC50 in test [8] and in test [9] were no more than 0.01 µM and no less than 0.1 µM, respectively.

`C=CC(=O)N[C@@H]1CN(c2nc(Nc3cn(CCN(C)C)nc3OC)c3ncc(C)n3n2)C[C@H]1F` [Example 5, N-((3R,4R)-1-(4-((1-(2-(dimethylamino)ethyl)-3-methoxy-1H-pyrazol-4-yl)amino)-7-methylimidazo[2,1-f][1,2,4]triazin-2-yl)-4-fluoropyrrolidin-3-yl)acrylamide]: the concentration for half-maximal inhibition (IC50) is 0.05 to 0.3 µM in test [1]; no less than 0.1 µM in test [2]; no more than 0.01 µM in test [3]; no more than 0.01 µM in test [4]; less than 0.05 µM in test [6]; less than 0.05 µM in test [7]. In addition, the half-inhibitory concentration (IC50) is no more than 0.01 µM in test [8] and no less than 0.1 µM in test [9].
